The record followed here is patent EP1988171A1, “SUBSTANCE FKI-2342 AND PROCESS FOR PRODUCTION THEREOF” (THE KITASATO INSTITUTE, priority 2006, dated 2007).

The subject of one test is Jurkat cells. Kind of test: Inhibitory action for G2 checkpoint using Jurkat cells (cell cycle by FACS). The note with it: for IC50: Homo sapiens; for selectivity: specificity to the G2 phase cells, Table 1; for differences between both concentrations: IC50 (col) versus IC50 (bleo). It is filed as cell-based, human. How it is done:
(§1) An assay method of G2 arrest activity with treatment of anticancer agent using cancer cells is performed according to the method of Suganuma et al. (Cancer Research, […]: 5887-5891, 1999).
Jurkat cells derived from human lymphoma were cultured in RPMI 1640 medium (a medium adding an inactivated fetal bovine serum (JRH Bioscience Inc.) 50 ml and a mixture 50 ml of penicillin (10,000 units/ml) and streptomycin (10 mg/ml) (Invitrogen Inc.) in RPMI 1640 (IWAKI Co., Ltd.) 500 ml) by using a 75 cm^3 culture flask. After centrifugation of the Jurkat cells at 1, 000 rpm for 10 minutes, the supernatant was removed by using aspirator to adjust the number of cells to be 5 × 10^5 cells/ml with addition of RPMI 1640 medium. Bleomycin (Nippon Kayaku Co., Ltd.) or colchicines (Sigma Inc.) was added to be the final concentration of 40 µM or 0.5 µM, respectively, into the cell suspension. The suspension was added into each well of 96 well multiplate (Corning Corp., the U.S.), which was previously air dried after adding FKI-2342A - F substances 200 µl (1 × 10^5 cells/well) in each well, and incubated at 37°C for 20 hours.
Cells after culturing for 20 hours were centrifuged at 1,000 rpm for 10 minutes, and the supernatant was removed by using aspirator. Krishan's reagent (trisodium citrate (Wako Pure Chemical Industries, Ltd.) […], IGEPALCA-630 (Sigma Inc.) 1.5 ml, ribonuclease A (Sigma Inc.) 10 mg and propydium iodide (Sigma Inc.) 25 mg dissolved in sterilized water 50.0 ml) […] was added to each well. The well was covered with aluminum foil for light shielding and allowed to stand at room temperature for 1 hour with gently shaking by the shaker to perform DNA staining. Measurement of cell cycle was performed by measuring 10,000 cells using FACS Caliber (Becton Dickinson Inc.) to calculate ratio of cells in sub G1, G1, S, and G2/M phase by using analytical software Ce 11 Quest.
Experimental results in relation to FKI-2342A substance - F substance were obtained by using the index of the G2/M phase cell. A concentration of substance wherein the number of cells at G2 phase is reduced to 50% when the number of cells arrested at G2 phase by treatment with bleomycin is set as 100%, is calculated as IC50 (bleo), and similarly a concentration of substance wherein the number of cells at M phase is reduced to 50% is calculated as IC50 (col), and the specificity to the G2 phase cells as the selectivity is shown in Table 1.
A general note: Flow cytometry measures light scatter and fluorescence of single cells or particles in a stream.

For a further test, the system named is HCT-116 cells. Kind of test: Inhibitory action for G2 checkpoint using HCT-116 cells (cell cycle by FACS). The note with it: for IC50: Homo sapiens, 24 hours; for Selectivity IC50(col) /IC50(bleo): Table 2. It is filed as cell-based, human. How it is done:
as §1
A cell suspension (15 ml) of HCT-116 cells derived from human colon cancer, adjusted to 1.5 × 10^5 cells/ml with McCoy's medium, was cultured in McCoy's 5A medium (a medium adding an inactivated fetal bovine serum (FBS) […] and a mixture 5 ml of penicillin (10,000 units/ml) and streptomycin (10 mg/ml) in McCoy's 5A (Invitrogen Inc.) 500 ml) in a 75-cm^3 culture flask (Corning Corp., the U.S.) under the atmosphere of […] at 37°C, and a subinoculation was performed after 3 days.
HCT-116 cells (500 µl) adjusted to give 1.5×10^5 cells/ml. were added into each well of a 24-well microplate (IWAKI Co., Japan) and incubated at 37°C for 24 hours. Thereafter, the medium was removed and 250 µl of 27 µM bleomycin or that of 0.5 µM colcicine prepared with McCoy's 5A medium were added in each well, and FKI-2342A substance - FKI-2342F substance dissolved in 0.5% DMSO, each 250 µl, were added (final concentration: bleomycin 13 µM, colchicine 0.25 µM, and 0.25% DMSO). The plate was incubated under […] at 37°C for 24 hours. After the incubation, the supernatant was recovered in 1.5 ml Eppendorf tube and stored on ice. Cells on the plate were detached by adding trypsin-EDTA solution (150 µl) and culturing at 37°C for 10 minutes. Immediately after the cells were detached, 300 µl of the medium were added to denature the trypsin, and were mixed with the supernatant which was stored on the ice. The mixture was centrifuged at 1,000 rpm for 10 minutes, and the supernatant was removed by using the aspirator, then Krishan's reagent (200 µl) was added thereto, and after allowing to stand for 1 hour, measurement was performed by using FACS.
Measurement of cell cycle was performed by measuring 10,000 cells using FACS Caliber (Becton Dickinson Inc.) to calculate ratio of cells in sub G1, G1, S, and G2/M phase by using analytical software cell Quest.
Experimental results in relation to FKI-2342A substance - F substance were obtained by using the index of the G2/M phase cell. A concentration of substance, in which the number of cells at G2 phase is reduced to 50% when the number of cells arrested at G2 phase by treatment with bleomycin is' set as 100%, is calculated as IC50 (bleo), and similarly a concentration of substance, in which the number of cells at M phase is reduced to 50%, is calculated as IC50 (col), and the specificity to the G2 phase cells as the selectivity is shown in Table'2.

[1] abbreviates: cells arrested at G2 phase by bleomycin 40 µM reduced to 50%, 20 hours, Table 1, read-out: IC50 bleomycin.
The mark [2] stands for this setting: cells at M phase (colchicine 0.5 µM) reduced to 50%, 20 hours, Table 1, read-out: IC50 colchicine.
Setting [3] is: cells arrested at G2 phase by bleomycin 13 µM reduced to 50%, read-out: IC50 bleomycin.
The mark [4] stands for this setting: cells at M phase (colchicine 0.25 µM) reduced to 50%, read-out: IC50 colchicine.
Setting [5] is: cells arrested at G2 phase by bleomycin reduced to 50%, read-out: IC50 (bleo).
The mark [6] stands for this setting: cells at M phase (colchicine) reduced to 50%, read-out: IC50 (col).

≈ marks a conversion by molar mass, not a printed value. Where two headings read alike, the source gives them in different places.

Usually IC50 stands for the concentration that gives 50% inhibition.

On to `C=C(C(=O)O)C(CCCC(=O)OC)C(=O)OC` (centres unmarked) [A], for which the IC50 stood at 100 µg/mL (≈ 409 µM) in the test on Jurkat cells (setting [1]), 200 µg/mL (≈ 819 µM) in the test with Jurkat cells (setting [2]), 120 µg/mL (≈ 491 µM) in the test with HCT-116 cells (setting [3]) and 180 µg/mL (≈ 737 µM) in the test with HCT-116 cells (setting [4]). For the same compound, the selectivity in the test on Jurkat cells turned out to be 2. In addition, the “Selectivity IC50(col) /IC50(bleo)” value with HCT-116 cells is recorded as 2.

On to `C=C(C(=O)O)C(CCCCCC(=O)OC)C(=O)O` (centres unmarked) [B], for which the IC50 stood at 100 µg/mL (≈ 387 µM) in the test on Jurkat cells (setting [1]), 200 µg/mL (≈ 774 µM) in the test on Jurkat cells (setting [2]), 120 µg/mL (≈ 465 µM) in the test with HCT-116 cells (setting [3]) and 180 µg/mL (≈ 697 µM) in the test on HCT-116 cells (setting [4]). The compound further gave a selectivity in the test on Jurkat cells of 2. Besides, the “Selectivity IC50(col) /IC50(bleo)” value in the test on HCT-116 cells was 2.

With `C=C(C(=O)O)C(CCCCCC(=O)OCC)C(=O)O` (centres unmarked) [C], the IC50 is 100 µg/mL (≈ 367 µM) in the test with Jurkat cells (setting [1]), 200 µg/mL (≈ 734 µM) in the test on Jurkat cells (setting [2]), 120 µg/mL (≈ 441 µM) in the test with HCT-116 cells (setting [3]) and 180 µg/mL (≈ 661 µM) in the test on HCT-116 cells (setting [4]). In the test with Jurkat cells, this compound returned a selectivity of 2. Besides, the “Selectivity IC50(col) /IC50(bleo)” value in the test with HCT-116 cells was 2.

As to `C=C(C(=O)O)C(CCCCCC(=O)OC)C(=O)OC` (centres unmarked) [D], the IC50 in the test on Jurkat cells (setting [1]) worked out at 25 µg/mL (≈ 91.8 µM); in the test with Jurkat cells (setting [5]), 25 µg/mL (≈ 91.8 µM); in the test with Jurkat cells (setting [2]) it was 175 µg/mL (≈ 643 µM); in the test on Jurkat cells (setting [6]), 175 µg/mL (≈ 643 µM); in the test with HCT-116 cells (setting [3]), 25 µg/mL (≈ 91.8 µM); in the test on HCT-116 cells (setting [4]), 100 µg/mL (≈ 367 µM). The “differences between both concentrations” value in the test on Jurkat cells amounted to 7 fold. The selectivity with Jurkat cells was found to be 7. The “differences in a concentration ratio (IC50 (col) / IC50 (bleo))” value in the test on HCT-116 cells is 4 fold. The “Selectivity IC50(col) /IC50(bleo)” value in the test with HCT-116 cells was determined as 7.

`C=C(C(=O)O)C(CCCCCCCC(=O)OC)C(=O)O` (centres unmarked) [E]: the IC50 worked out at 1.2 µg/mL (≈ 4.19 µM) in the test on Jurkat cells (setting [1]); 1.2 µg/mL (≈ 4.19 µM) with Jurkat cells (setting [5]); 10 µg/mL (≈ 34.9 µM) with Jurkat cells (setting [2]); 10 µg/mL (≈ 34.9 µM) with Jurkat cells (setting [6]); 2 µg/mL (≈ 6.99 µM) in the test on HCT-116 cells (setting [3]); 20 µg/mL (≈ 69.9 µM) in the test on HCT-116 cells (setting [4]). Moreover, the “differences between both concentrations” value with Jurkat cells is given as 8 fold. In the test with Jurkat cells, this compound had a selectivity of 8. Besides, in the test with HCT-116 cells, the “differences in a concentration ratio (IC50 (col) / IC50 (bleo))” value is reported as 10 fold. In the test with HCT-116 cells, the “Selectivity IC50(col) /IC50(bleo)” value is 8.

In the case of `C=C(C(=O)O)C(CCCC(=O)OCC)C(=O)O` (centres unmarked) [F], the IC50 is 100 µg/mL (≈ 409 µM) with Jurkat cells (setting [1]), 200 µg/mL (≈ 819 µM) in the test on Jurkat cells (setting [2]), 100 µg/mL (≈ 409 µM) in the test with HCT-116 cells (setting [3]) and 180 µg/mL (≈ 737 µM) in the test on HCT-116 cells (setting [4]). In addition, the selectivity in the test with Jurkat cells stood at 2. In the test with HCT-116 cells, the “Selectivity IC50(col) /IC50(bleo)” value is given as 2.
